In patent US20230382923A1, “FUSED TETRACYCLIC QUINAZOLINE DERIVATIVES AS INHIBITORS OF ERBB2” (EnLiven Therapeutics, Inc., priority 2021, published 2023):

Columns and labels:
[1] = target: phosphorylated ERBB2 (pERBB2) (Homo sapiens (Human), UniProt P04626); test: Detection of phosphorylated ERBB2 (pERBB2) by ELISA in BT-474 cells; format: cell-based; details: four hours incubation with compound
Protocol: BT-474 cells were seeded into a 96-well at 2.0*10^4cells/100 μl/well. Compounds were dissolved and serially diluted in DMSO. The compounds were then were added, mixed, and incubated for four hours at 37° C., 5% CO2. […] Following the four hour incubation with compounds, cell lysates were prepared. Plates were centrifuged for 5 min at 3000 RPM, and supernatant was removed from each well. Cells were washed 3 times by resuspension in 150 μl PBS, followed by centrifugation and removal of the supernatant, as above. 100 μl of cell lysis buffer (Boston BioProducts, cat #BP-115D) supplied with 1×complete ULTRA cocktail inhibitor (Thermo ScientificTM, cat #78443) was then added to the washed cells. Cells were incubated with lysis buffer for 1 hour at 4° C., and then stored at -80° C. Enzyme-linked immunosorbent assays (ELISA) were performed to measure phosphorylated ERBB2 levels. […] The next day, plates were washed with PBS+0.05% Tween20 (PBST). 150 μl of 5% BSA blocking solution was added for 1 hour at room temperature, with shaking. Plates were washed with PBST. Cell lysates were thawed and 100 μl of lysate was added to the ELISA plate. The plates were incubated for 2 hours at room temperature, with shaking. ELISA plates were then washed with PBST and 100 μl of an HRP-labeled detection antibody that binds phosphorylated tyrosine (R&D Systems, cat #841913) was added to each well. Plates were incubated for 1 hour at room temperature, with shaking. Plates were then washed with PBST, and 100 μl TMB substrate solution (R&D Systems, cat #DY999) was added. Plate were incubated in the dark for 20 minutes at room temperature. 50 μl of Stop solution (R&D Systems, cat #DY994) (50 μl) was added to each well and mixed. […] The remaining kinase activity by calculated using the following formula: % Relative activity=100×([…]). The low and high control values (“LC” and “HC”) were generated from lysate from wells without cells or with cells treated with 0.1% DMSO, respectively.

[2] = target: phosphorylated EGFR (pEGFR) (Homo sapiens (Human), UniProt P00533); test: Detection of phosphorylated EGFR (pEGFR) by AlphaLISA in A431 cells; format: cell-based; details: A431 cells (10% FBS), 4 hours incubation, EGF 30 ng/mL for 10 minutes
Chain of phosphorylated EGFR (pEGFR) (P00533 25-1210): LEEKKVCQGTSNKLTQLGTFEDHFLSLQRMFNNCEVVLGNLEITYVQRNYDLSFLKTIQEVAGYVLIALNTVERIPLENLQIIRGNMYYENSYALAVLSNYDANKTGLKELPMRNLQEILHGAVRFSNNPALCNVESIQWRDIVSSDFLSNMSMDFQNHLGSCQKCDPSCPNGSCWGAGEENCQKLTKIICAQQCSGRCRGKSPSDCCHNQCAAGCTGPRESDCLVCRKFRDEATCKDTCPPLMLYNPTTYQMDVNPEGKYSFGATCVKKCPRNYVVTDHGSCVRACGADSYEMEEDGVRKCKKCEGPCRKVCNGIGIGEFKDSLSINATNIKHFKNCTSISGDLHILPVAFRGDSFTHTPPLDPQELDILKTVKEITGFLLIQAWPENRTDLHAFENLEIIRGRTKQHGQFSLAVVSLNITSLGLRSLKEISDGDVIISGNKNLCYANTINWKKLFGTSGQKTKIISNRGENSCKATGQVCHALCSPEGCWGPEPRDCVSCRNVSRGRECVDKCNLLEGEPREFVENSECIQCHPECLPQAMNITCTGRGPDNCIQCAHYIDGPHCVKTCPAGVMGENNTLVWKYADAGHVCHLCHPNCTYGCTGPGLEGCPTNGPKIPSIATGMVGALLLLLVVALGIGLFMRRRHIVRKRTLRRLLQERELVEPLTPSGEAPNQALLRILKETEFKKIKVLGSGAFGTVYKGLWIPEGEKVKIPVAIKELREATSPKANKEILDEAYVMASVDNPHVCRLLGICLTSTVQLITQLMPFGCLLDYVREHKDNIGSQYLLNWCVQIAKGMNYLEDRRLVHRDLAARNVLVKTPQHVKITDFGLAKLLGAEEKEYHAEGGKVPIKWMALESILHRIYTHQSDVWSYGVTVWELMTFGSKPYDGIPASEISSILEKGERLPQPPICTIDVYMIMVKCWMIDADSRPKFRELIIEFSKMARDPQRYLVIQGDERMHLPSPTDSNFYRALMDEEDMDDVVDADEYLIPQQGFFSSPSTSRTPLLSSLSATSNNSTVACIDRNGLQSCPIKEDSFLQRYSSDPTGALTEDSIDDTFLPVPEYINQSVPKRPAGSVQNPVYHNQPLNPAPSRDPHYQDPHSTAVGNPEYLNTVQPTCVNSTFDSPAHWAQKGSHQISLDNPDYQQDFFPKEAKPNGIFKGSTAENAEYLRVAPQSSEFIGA
Protocol: […] were performed to measure phosphorylated EGFR levels using A431 cells (10% FBS). A431 (1.0*10^4cells/40 μl/well) cells were seeded in 384 well. Compounds were dissolved in DMSO, serially diluted in DMSO and then were added, mixed, and incubated for 4 hours at 37° C., […]. Following the 4-hours incubation, cells were stimulated for 10 minutes with EGF (Invitrogen, cat #PHG0311) at a final concentration of 30 ng/mL in the incubator. The media was aspirated and cells were lysed in 10 μL lysis buffer with protease and phosphatase inhibitors (PerkinElmer, cat #ALSU-PEGFR-A50K). The plates were placed on a shaker for 5 minutes and then incubated for 30 min at 4° C. for complete lysis. The lysate was transferred to an Optiplate (Perkin Elmer, cat #6007290).
Acceptor mix (PerkinElmer, cat #ALSU-PEGFR-A50K) was prepared just before use and 5 μL was dispensed to all the wells, followed by a 1.5-2 h incubation at room temperature in dark. The donor mix (PerkinElmer, cat #ALSU-PEGFR-A50K) was prepared under low light conditions prior to use and 5 μl of donor mix was added to all the wells under subdued lighting or green filters. The plates were placed on a shaker for 5 min, sealed, and incubated overnight at room temperature in dark. Plates were read on the Envision (PerkinElmer) using standard AlphaLISA settings.
The percentage of inhibition on EGFR phosphorylation was calculated following equation: % Inhibition=100×(LumHC−LumSample)/(LumHC−LumLC). The low and high controls (LC/HC) are generated from lysate from wells with cells treated with DMSO or […] Staurosporine (BioAustralis, cat #BIA-S1086), […]. IC50 values were calculated by fitting the Curve using XLfit (v5.3.1.3), equation 201: Y=Bottom+(Top−Bottom)/(1+10^((LogIC50−X)*HillSlope)).

Chain of phosphorylated ERBB2 (pERBB2) (P04626 23-1255): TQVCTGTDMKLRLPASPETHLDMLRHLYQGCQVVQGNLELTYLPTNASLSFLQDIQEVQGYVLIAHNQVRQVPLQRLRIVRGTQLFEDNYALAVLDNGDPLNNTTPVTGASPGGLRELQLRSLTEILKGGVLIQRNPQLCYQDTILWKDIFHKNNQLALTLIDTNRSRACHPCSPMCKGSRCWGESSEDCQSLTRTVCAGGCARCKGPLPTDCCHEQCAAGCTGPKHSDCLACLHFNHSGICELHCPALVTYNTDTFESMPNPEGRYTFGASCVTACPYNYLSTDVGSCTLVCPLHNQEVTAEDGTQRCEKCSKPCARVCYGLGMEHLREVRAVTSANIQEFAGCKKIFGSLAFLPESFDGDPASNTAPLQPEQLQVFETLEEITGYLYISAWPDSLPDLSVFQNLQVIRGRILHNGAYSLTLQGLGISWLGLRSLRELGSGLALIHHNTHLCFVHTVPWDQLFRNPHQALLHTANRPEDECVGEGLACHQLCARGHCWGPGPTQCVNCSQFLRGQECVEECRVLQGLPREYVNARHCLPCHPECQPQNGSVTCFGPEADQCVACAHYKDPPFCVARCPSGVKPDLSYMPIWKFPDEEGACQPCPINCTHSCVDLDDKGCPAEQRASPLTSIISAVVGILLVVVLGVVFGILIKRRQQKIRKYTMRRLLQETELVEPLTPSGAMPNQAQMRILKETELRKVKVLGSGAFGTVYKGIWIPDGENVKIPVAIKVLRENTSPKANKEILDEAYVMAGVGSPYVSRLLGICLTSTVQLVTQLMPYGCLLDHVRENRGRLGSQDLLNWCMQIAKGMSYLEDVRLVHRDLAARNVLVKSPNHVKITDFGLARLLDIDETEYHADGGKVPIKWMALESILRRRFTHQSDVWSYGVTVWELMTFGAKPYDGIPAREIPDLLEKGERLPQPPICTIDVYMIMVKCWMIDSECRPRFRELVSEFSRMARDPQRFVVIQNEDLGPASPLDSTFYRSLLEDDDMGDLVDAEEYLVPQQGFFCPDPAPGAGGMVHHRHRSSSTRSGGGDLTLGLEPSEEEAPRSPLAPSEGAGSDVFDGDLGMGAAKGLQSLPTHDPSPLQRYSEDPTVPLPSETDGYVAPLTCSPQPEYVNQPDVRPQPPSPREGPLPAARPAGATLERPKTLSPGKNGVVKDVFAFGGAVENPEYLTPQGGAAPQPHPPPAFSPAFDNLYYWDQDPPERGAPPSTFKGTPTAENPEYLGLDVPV

With `Cc1cc(Nc2ncnc3cc4c(nc23)N2CCN(C(=O)/C=C/[C@H]3CCCN3C)C(CO4)C2)ccc1Oc1ccn2ncnc2c1` (stereo in doubt) [Compound 27, (E)-1-((10S)-4-((4-([1,2,4]triazolo[1,5-a]pyridin-7-yloxy)-3-methylphenyl)amino)-7,8,10,11-tetrahydro-9H-6,10-methanopyrimido[4′,5′:5,6]pyrido[3,2-b][1,4,7]oxadiazonin-9-yl)-3-((R)-1-methylpyrrolidin-2-yl)prop-2-en-1-one] the IC50 [1] was 14.4 nM and the IC50 [2] was 5260 nM.

Compound `Cc1cc(Nc2ncnc3cc4c(nc23)N2CCN(C(=O)/C=C/[C@@H]3CCCN3C)C(CO4)C2)ccc1Oc1ccn2ncnc2c1` (stereo in doubt) [Compound 28, (E)-1-((10S)-4-((4-([1,2,4]triazolo[1,5-a]pyridin-7-yloxy)-3-methylphenyl)amino)-7,8,10,11-tetrahydro-9H-6,10-methanopyrimido[4′,5′:5,6]pyrido[3,2-b][1,4,7]oxadiazonin-9-yl)-3-((S)-1-methylpyrrolidin-2-yl)prop-2-en-1-one] has an IC50 [1] of 10.8 nM and an IC50 [2] of 8770 nM.

In the case of `Cc1cc(Nc2ncnc3cc4c(nc23)N2CCN(C(=O)/C=C/[C@@H](C)N(C)C)C(CO4)C2)ccc1Oc1ccn2ncnc2c1` (stereo in doubt) [Compound 29, (4R,E)-1-((10S)-4-((4-([1,2,4]triazolo[1,5-a]pyridin-7-yloxy)-3-methylphenyl)amino)-7,8,10,11-tetrahydro-9H-6,10-methanopyrimido[4′,5′:5,6]pyrido[3,2-b][1,4,7]oxadiazonin-9-yl)-4-(dimethylamino)pent-2-en-1-one], the IC50 [1] is reported as 16.8 nM and the IC50 [2] is reported as > 10000 nM.

`CN(C)C/C=C/C(=O)N1CCN2CC1COc1cc3ncnc(Nc4ccc(Oc5ccn6ncnc6c5)cc4)c3nc12` (stereo in doubt) [Compound 31, (E)-1-((10S)-4-((4-([1,2,4]triazolo[1,5-a]pyridin-7-yloxy)phenyl)amino)-7,8,10,11-tetrahydro-9H-6,10-methanopyrimido[4′,5′:5,6]pyrido[3,2-b][1,4,7]oxadiazonin-9-yl)-4-(dimethylamino)but-2-en-1-one] was tested, and the IC50 [1] was 18.5 nM and the IC50 [2] was > 10000 nM.

With `CN(C)C/C=C/C(=O)N1CCN2CC1COc1cc3ncnc(Nc4ccc(Oc5ccn6ncnc6c5)c(Cl)c4)c3nc12` (stereo in doubt) [Compound 32, (E)-1-((10S)-4-((4-([1,2,4]triazolo[1,5-a]pyridin-7-yloxy)-3-chlorophenyl)amino)-7,8,10,11-tetrahydro-9H-6,10-methanopyrimido[4′,5′:5,6]pyrido[3,2-b][1,4,7]oxadiazonin-9-yl)-4-(dimethylamino)but-2-en-1-one] the IC50 [1] was 8.41 nM and the IC50 [2] was 920 nM.

Work on `Cc1cc(Nc2ncnc3cc4c(nc23)N2CCN(C(=O)/C=C/CN(C)C)C(CO4)C2)ccc1Oc1ccn2ccnc2c1` (stereo in doubt) [Compound 34, (E)-4-(dimethylamino)-1-((10S)-4-((4-(imidazo[1,2-a]pyridin-7-yloxy)-3-methylphenyl)amino)-7,8,10,11-tetrahydro-9H-6,10-methanopyrimido[4′,5′:5,6]pyrido[3,2-b][1,4,7]oxadiazonin-9-yl)but-2-en-1-one] yielded an IC50 [1] of 17.7 nM and an IC50 [2] of 465 nM.

With `Cc1c(Oc2ccn3ncnc3c2)ccc(Nc2ncnc3cc4c(nc23)N2CCN(C(=O)/C=C/CN(C)C)C(CO4)C2)c1F` (stereo in doubt) [Compound 35, (E)-1-((10S)-4-((4-([1,2,4]triazolo[1,5-a]pyridin-7-yloxy)-2-fluoro-3-methylphenyl)amino)-7,8,10,11-tetrahydro-9H-6,10-methanopyrimido[4′,5′:5,6]pyrido[3,2-b][1,4,7]oxadiazonin-9-yl)-4-(dimethylamino)but-2-en-1-one] the IC50 [1] was 5.48 nM and the IC50 [2] was 309 nM.

For `CN(C)C/C=C/C(=O)N1CCN2CC1COc1cc3ncnc(Nc4ccc(Oc5ccn6ncnc6c5)c(F)c4)c3nc12` (stereo in doubt) [Compound 39, (E)-1-((10S)-4-((4-([1,2,4]triazolo[1,5-a]pyridin-7-yloxy)-3-fluorophenyl)amino)-7,8,10,11-tetrahydro-9H-6,10-methanopyrimido[4′,5′:5,6]pyrido[3,2-b][1,4,7]oxadiazonin-9-yl)-4-(dimethylamino)but-2-en-1-one], the IC50 [1] was 8.92 nM and the IC50 [2] was 6170 nM.

In the case of `Cc1cc(Nc2ncnc3cc4c(c(F)c23)N2CCN(C(=O)/C=C/CN(C)C)C(CO4)C2)ccc1Oc1ccn2ncnc2c1` (stereo in doubt) [Compound 40, (E)-1-((10S)-4-((4-([1,2,4]triazolo[1,5-a]pyridin-7-yloxy)-3-methylphenyl)amino)-5-fluoro-7,8,10,11-tetrahydro-9H-6,10-methano[1,4,7]oxadiazonino[3,2-g]quinazolin-9-yl)-4-(dimethylamino)but-2-en-1-one], the IC50 [1] is reported as 18.5 nM and the IC50 [2] is reported as > 10000 nM.

Work on `Cc1cc(Nc2ncnc3cc4c(nc23)N2CCN(C(=O)/C=C/[C@H]3CCCN3C)C(CO4)C2)c(F)cc1Oc1ccn2ncnc2c1` (stereo in doubt) [Compound 41, (E)-1-((10S)-4-((4-([1,2,4]triazolo[1,5-a]pyridin-7-yloxy)-2-fluoro-5-methylphenyl)amino)-7,8,10,11-tetrahydro-9H-6,10-methanopyrimido[4′,5′:5,6]pyrido[3,2-b][1,4,7]oxadiazonin-9-yl)-3-((R)-1-methylpyrrolidin-2-yl)prop-2-en-1-one] yielded an IC50 [1] of 24.5 nM and an IC50 [2] of 7300 nM.

In the case of `CN(C)C/C=C/C(=O)N1CCN2CC1COc1cc3ncnc(Nc4ccc(Oc5ccn6ncnc6c5)cc4F)c3nc12` (stereo in doubt) [Compound 42, (E)-1-((10S)-4-((4-([1,2,4]triazolo[1,5-a]pyridin-7-yloxy)-2-fluorophenyl)amino)-7,8,10,11-tetrahydro-9H-6,10-methanopyrimido[4′,5′:5,6]pyrido[3,2-b][1,4,7]oxadiazonin-9-yl)-4-(dimethylamino)but-2-en-1-one], the IC50 [1] is reported as 10.8 nM and the IC50 [2] is reported as 1940 nM.

For `CN(C)C/C=C/C(=O)N1CCN2CC1COc1cc3ncnc(Nc4cc(Cl)c(Oc5ccn6ncnc6c5)cc4F)c3nc12` (stereo in doubt) [Compound 43, (E)-1-((10S)-4-((4-([1,2,4]triazolo[1,5-a]pyridin-7-yloxy)-5-chloro-2-fluorophenyl)amino)-7,8,10,11-tetrahydro-9H-6,10-methanopyrimido[4′,5′:5,6]pyrido[3,2-b][1,4,7]oxadiazonin-9-yl)-4-(dimethylamino)but-2-en-1-one], the IC50 [1] was 8.69 nM and the IC50 [2] was 1400 nM.

Compound `Cc1cc(Nc2ncnc3cc4c(nc23)N2CCN(C(=O)/C=C/CN(C)C)C(CO4)C2)c(F)cc1Oc1cncc(F)c1` (stereo in doubt) [Compound 44, (E)-4-(dimethylamino)-1-((10S)-4-((2-fluoro-4-((5-fluoropyridin-3-yl)oxy)-5-methylphenyl)amino)-7,8,10,11-tetrahydro-9H-6,10-methanopyrimido[4′,5′:5,6]pyrido[3,2-b][1,4,7]oxadiazonin-9-yl)but-2-en-1-one] has an IC50 [1] of 36 nM and an IC50 [2] of 337 nM.

In the case of `Cc1cc(Nc2ncnc3cc4c(nc23)N2CCN(C(=O)/C=C/C3CN(C)C3)C(CO4)C2)ccc1Oc1ccn2ncnc2c1` (stereo in doubt) [Compound 45, (E)-1-((10S)-4-((4-([1,2,4]triazolo[1,5-a]pyridin-7-yloxy)-3-methylphenyl)amino)-7,8,10,11-tetrahydro-9H-6,10-methanopyrimido[4′,5′:5,6]pyrido[3,2-b][1,4,7]oxadiazonin-9-yl)-3-(1-methylazetidin-3-yl)prop-2-en-1-one], the IC50 [1] is reported as 27.3 nM and the IC50 [2] is reported as > 10000 nM.
